Experiments:
[1] = Selectivity index, ratio of IC50 for human HepG2 cells to IC50 for erythrocytic stage of Plasmodium falciparum 3D7; type: toxicity, cell-based; conditions: read-out: Ratio IC50
[2] = test system: Plasmodium falciparum; experiment: microbe, parasite or virus in culture; conditions: Dd2, 72 h
Description: Antimalarial activity against erythrocytic stage of chloroquine-resistant Plasmodium falciparum Dd2 assessed as inhibition of growth incubated for 72 hrs by SYBR green I based assay

[3] = Cytotoxicity against human HepG2 cells assessed as inhibition of cell growth incubated for 72 hrs by CCK8 assay; type: toxicity, cell-based
[4] = Selectivity index, ratio of IC50 for HEK293T cells to IC50 for erythrocytic stage of Plasmodium falciparum 3D7; type: toxicity, cell-based; conditions: human, read-out: Ratio IC50
[5] = test system: Plasmodium falciparum; experiment: microbe, parasite or virus in culture; conditions: 3D7, 72 h
Description: Antimalarial activity against erythrocytic stage of Plasmodium falciparum 3D7 assessed as inhibition of growth incubated for 72 hrs by SYBR green I based assay

[6] = Cytotoxicity against HEK293T cells assessed as inhibition of cell growth incubated for 72 hrs by CCK8 assay; type: toxicity, cell-based, HEK-293T; conditions: human
[7] = test system: Plasmodium falciparum; experiment: Antimalarial activity against sulfadoxine-pyrimethamine and mefloquine resistant Plasmodium falciparum clinical isolate CP286 assessed as inhibition of growth incubated for 72 hrs by SYBR green I based assay; type: functional, organism-based

SMILES | selectivity ratio [1] | IC50 [2] [nM] | IC50 at 72 h [3] [nM] | selectivity ratio [4] | IC50 [5] [nM] | IC50 at 72 h [6] [nM] | IC50 [7] [nM]
O=C(NO)c1cnc(N[C@H]2CC[C@@H](NCc3ccc(-c4ccccc4)cc3)CC2)nc1 | 22 | 179 | 2000 | 24 | 92.1 | 2180 | 
O=C(NO)c1cnc(N[C@H]2CC[C@@H](NCc3cc4ccccc4c4ccccc34)CC2)nc1 | 120 | 12.3 | 1290 | 187 | 10.7 | 2010 | 
Cn1cc(CN[C@H]2CC[C@@H](Nc3ncc(C(=O)NO)cn3)CC2)c2ccc(Br)cc21 | 100 | 19 | 2220 | 217 | 22.2 | 4830 | 
Cn1cc(CN[C@H]2CC[C@@H](Nc3ncc(C(=O)NO)cn3)CC2)c2ccc(Cl)cc21 | 146 | 18 | 2500 | 213 | 17.1 | 3650 | 
O=C(NO)c1cnc(N[C@H]2CC[C@@H](NCc3cnc4ccccc4c3)CC2)nc1 | 123 | 37.6 | 3340 | 161 | 27.1 | 4360 | 
O=C(NO)c1cnc(N[C@H]2CC[C@@H](NCc3ccccc3)CC2)nc1 |  | 54.6 |  | 44 |  | 4620 | 
O=C(NO)c1cnc(N[C@H]2CC[C@@H](NCc3ccc4ncccc4c3)CC2)nc1 | 143 | 47.2 | 6380 | 157 | 44.5 | 6980 | 
O=C(NO)c1cnc(N[C@H]2CC[C@@H](NCC3CCCC3)CC2)nc1 | 55 | 70.1 | 5490 | 59 | 100 | 5880 | 
O=C(NO)c1cnc(N[C@H]2CC[C@@H](NCc3cccc4ccccc34)CC2)nc1 | 19 | 39.5 | 642 | 47 | 34.3 | 1530 | 
O=C(NO)c1cnc(N[C@H]2CC[C@@H](NCc3ccccn3)CC2)nc1 | > 72 | 210 | > 10000 | > 72 | 138 | > 10000 | 
O=C(NO)c1cnc(N[C@H]2CC[C@@H](NCc3ccc4ccccc4n3)CC2)nc1 | 233 | 14.3 | 2430 | 278 | 10.4 | 2890 | 
O=C(NO)c1cnc(N[C@H]2CC[C@@H](NCc3csc4ccccc34)CC2)nc1 | 54 | 34.8 | 1360 | 77 | 25.3 | 1940 | 
O=C(NO)c1cnc(N[C@H]2CC[C@@H](NCc3ccc4cc(F)ccc4n3)CC2)nc1 | 324 | 15.8 | 3620 | 213 | 11.2 | 2380 | 
O=C(NO)c1cnc(N[C@H]2CC[C@@H](NCc3ccc4ccccc4c3)CC2)nc1 | 73 | 15.4 | 1130 | 116 | 15.4 | 1790 | 
O=C(NO)c1cnc(N[C@H]2CC[C@@H](NCc3cc4ccccc4s3)CC2)nc1 | 66 | 26.4 | 1440 | 109 | 21.8 | 2380 | 
O=C(NO)c1cnc(N[C@H]2CC[C@@H](NCc3ccc4ccc5cccc6ccc3c4c56)CC2)nc1 | 70 | 28.8 | 2130 | 87 | 30.3 | 2640 | 
O=C(NO)c1cnc(N[C@H]2CC[C@@H](NCc3ccncc3)CC2)nc1 | > 64 | 186 | > 10000 | > 64 | 156 | > 10000 | 
Cn1nc(CN[C@H]2CC[C@@H](Nc3ncc(C(=O)NO)cn3)CC2)c2ccccc21 | 212 | 31.2 | 5790 | 210 | 27.3 | 5740 | 

SMILES | selectivity ratio [1] | IC50 [2] [nM] | IC50 at 72 h [3] [nM] | selectivity ratio [4] | IC50 [5] [nM] | IC50 at 72 h [6] [nM] | IC50 [7] [nM]
O=C(NO)c1cnc(N[C@H]2CC[C@@H](NCc3ccnc4ccccc34)CC2)nc1 | 125 | 54 | 7120 | > 176 | 57 | > 10000 | 
O=C(NO)c1cnc(N[C@H]2CC[C@@H](NCc3ccsc3)CC2)nc1 | > 76 | 71.2 | > 10000 | > 76 | 132 | > 10000 | 
O=C(NO)c1cnc(N[C@H]2CC[C@@H](NCc3coc4ccccc34)CC2)nc1 | 51 | 35.5 | 2580 | 61 | 50.8 | 3110 | 
O=C(NO)c1cnc(N[C@H]2CC[C@@H](NCc3ccoc3)CC2)nc1 | > 91 | 106 | > 10000 | > 91 | 109 | > 10000 | 
Cn1cc(CN[C@H]2CC[C@@H](Nc3ncc(C(=O)NO)cn3)CC2)c2ccncc21 | > 192 | 49.4 | > 10000 | > 192 | 52.1 | > 10000 | 
O=C(NO)c1cnc(N[C@H]2CC[C@@H](NCc3cccc4ccncc34)CC2)nc1 | 163 | 62.1 | 7080 | 163 | 43.4 | 7080 | 
Cn1cc(CN[C@H]2CC[C@@H](Nc3ncc(C(=O)NO)cn3)CC2)c2cccnc21 | > 209 | 53.9 | > 10000 | > 209 | 47.9 | > 10000 | 
Cn1cc(CN[C@H]2CC[C@@H](Nc3ncc(C(=O)NO)cn3)CC2)c2cnccc21 | > 157 | 51.3 | > 10000 | > 157 | 63.8 | > 10000 | 
O=C(NO)c1cnc(N[C@H]2CC[C@@H](NCc3c4ccccc4cc4ccccc34)CC2)nc1 | 95 | 7.5 | 858 | 114 | 9 | 1030 | 
O=C(NO)c1cnc(N[C@H]2CC[C@@H](NCC3CCCCC3)CC2)nc1 | 67 | 53.4 | 5840 | 41 | 87.6 | 3630 | 
CCc1nc(N)nc(N)c1-c1ccc(Cl)cc1 [PYRIMETHAMINE] |  |  |  |  | 24.8 |  | > 50000
O=C(NO)c1cnc(N[C@H]2CC[C@@H](NCc3cccc4cccnc34)CC2)nc1 | > 152 | 53.6 | > 10000 | > 152 | 65.6 | > 10000 | 
Cn1cc(CN[C@H]2CC[C@@H](Nc3ncc(C(=O)NO)cn3)CC2)c2ccccc21 | 163 | 11.9 | 1770 | 399 | 10.8 | 4310 | 
Cn1c(CN[C@H]2CC[C@@H](Nc3ncc(C(=O)NO)cn3)CC2)nc2ccccc21 | > 510 | 26.4 | > 10000 | > 510 | 19.6 | > 10000 | 
O=C(NO)c1cnc(N[C@H]2CC[C@@H](NCc3cccnc3)CC2)nc1 | 40 | 56.5 | 4580 | 37 | 114 | 4240 | 
Cn1cc(CN[C@H]2CC[C@@H](Nc3ncc(C(=O)NO)cn3)CC2)c2ccc(F)cc21 | 267 | 14.5 | 3190 | 501 | 12 | 6000 | 
Cn1cc(CN[C@H]2CC[C@@H](Nc3ncc(C(=O)NO)cn3)CC2)c2ncccc21 | > 214 | 38.3 | > 10000 | 27 | 46.7 | 1250 | 
